Measurements as given in patent US20250224399A1, “METHOD FOR DETECTING HOMOCYSTEINE IN PLASMA AND METHOD FOR DIAGNOSING GLIOBLASTOMA BY USING NOVEL FLUORESCENT PROBE” (UNIVERSITY-INDUSTRY COOPERATION GROUP OF KYUNG HEE …, priority 2022, published 2025).

Legend:
[1] = Stability in aqueous solution; type: physicochemical; settings: pH 7.4, PBS buffer
[2] = Selectivity toward biomolecules, thiols and metal ions (fluorescence at 550 nm); settings: pH 7.4 PBS buffer, excitation 460 nm, emission 550 nm
Procedure: An aqueous solution (pH 7.4, PBS buffer) was used, and metal ions were purchased from Aldrich, Oriental Chemicals, Samchun chemicals, and Duksan chemicals. Compound 1 was dissolved in dimethyl sulfoxide (DMSO) at 10 mM and used, and the amount of dimethyl sulfoxide was controlled to be the same in each solvent (less than 1%) under the final solvent conditions used. The concentration of Compound 1 was 10 μM, and the biomolecule was treated identically at 10 μM. The excitation wavelength was 460 nm, and the fluorescence value at a fluorescence wavelength of 550 nm was measured using a fluorescence spectrophotometer, and is shown in FIG. 3.
The types of ions indicated on the horizontal axis in the graph of FIG. 3 are as follows: • (A) Probe 1 with DL-Homocysteine; • (B) Probe 1 with L-Cysteine; • (C) Probe 1 with L-Glutathion; • (D) Probe 1 with Hydrogen sulfide; • (E) Probe 1 with Bovine Serum Albumin; • (F) Probe 1 with Holmium (III) chloride; • (G) Probe 1 with Iron (II) chloride; • (H) Probe 1 with Iron (III) chloride; • (I) Probe 1 with Magnesium chloride; • (J) Probe 1 with Nikel (II) chloride; • (K) Probe 1 with Phosphorus pentachloride; • (L) Probe 1 with Gold trichloride; • (M) Probe 1 with Palladium (II) chloride; • (N) Probe 1 with potassium chloride; • (O) Probe 1 with Silver nitrate; • (P) Probe 1 with Sodium chloride; and • (Q) Probe 1 with Cobalt chloride.

[3] = Fluorescence intensity in plasma of glioblastoma mice versus normal mice; set-up: species or system mouse; settings: plasma 7 and 14 days after the induction of glioblastoma, excitation 460 nm, emission 550 nm
Procedure: First, in order to prepare the experimental group, a glioblastoma mouse model was created by administering a solution containing 5.0×10^5 cells in 5 μL of cell culture media without fetal bovine serum (FBS) using LUC-U87MG cells (glioblastoma cells) to the mouse brain (thalamus).
In order to identify the reaction between Compound 1 and mouse plasma, a fluorescence measuring device (Spectro-fluorophotometer: SHIMADZU CORP. RF-6000, Japan) was used. The glass cuvette used for fluorescence measurements was a standard quartz cell with a thickness of 1 cm on all sides (internal volume=0.1 cm, Hellma Analytics, Jena, Germany).
In addition, in order to identify the reaction between Compound 1 and mouse plasma, blood was collected from the control group and the experimental group, the plasma was isolated, reacted with Compound 1, and then the fluorescence intensity was measured at an emission wavelength of 550 nm using a fluorescence measuring device (Spectro-fluorophotometer; SHIMADZU CORP. RF-6000, Japan) (excitation wavelength: 460 nm). The glass cuvette used for fluorescence measurements was a standard quartz cell with a thickness of 1 cm on all sides (internal volume=0.1 cm, Hellma Analytics, Jena, Germany).

[4] = pH-dependent homocysteine sensing ability (fluorescence at 550 nm); settings: 10 μM probe, 10 μM homocysteine, stirred 10 minutes, excitation 460 nm, emission 550 nm
Procedure: The present inventors identified the homocysteine sensing ability of Compound 1 (NPO-pyr) according to acidity (pH).
Specifically, in order to observe the sensitivity of acidity (pH) to homocysteine based on the fluorescence turning-on of Compound 1, the sensitivity was identified under various acidity conditions (pH 3 to 9) while fixing the concentrations of Compound 1 (10 μM) and homocysteine (10 μM). In other words, 10 µM of homocysteine was treated under the conditions of pH 3, 5, 7, 7.4, and 9, respectively, and 10 μM of Compound 1 was stirred for 10 minutes, and then the fluorescence intensity was measured. In this connection, an excitation wavelength of 460 nm was used, and a fluorescence emission wavelength of 550 nm was measured. The fluorescence intensity is shown in the bar graph in FIG. 4.

[5] = Homocysteine reaction time and selectivity among amino thiols (fluorescence over 0 to 30 minutes); settings: pH 7.4 PBS buffer
Procedure: In order to identify whether Compound 1 (NPO-pyr) would react with various types of aminothiols including homocysteine under neutral conditions (pH 7.4), Compound 1 and aminothiol were added to an aqueous solution of neutral conditions (pH 7.4, PBS buffer) and the fluorescence emission graph was measured.
Specifically, Compound 1 (10 μM) was reacted with homocysteine (DL-homocysteine, 10 μM), cysteine (10 μM), glutathione (L-glutathione, 10 μM), and hydrogen sulfide (10 μM) in an aqueous solution (pH 7.4, PBS buffer), and the fluorescence value was measured (excitation wavelength: 460 nm). Amino thiols including homocysteine were purchased from Sigma, TCI, and a fluorophotometer (SHIMADZU CORP. RF-6000, Japan) was used for fluorescence spectra analysis. In this connection, the cell that puts the compound into each device was a standard quartz cell with a thickness of 1 cm (internal volume=[…]).

[6] = Homocysteine sensing ability in mouse plasma (limit of detection); settings: probe 10 μM, 10 minutes at 37° C., excitation 460 nm
Procedure: (§1) In order to identify the detection ability of Compound 1 (NPO-pyr) for homocysteine present in mouse plasma and feces, plasma (20 μL) isolated from blood and an extract (9.5 mg) extracted from mouse feces were dissolved in an aqueous solution (DI. H2O) (5 mL), treated with homocysteine at various concentrations (1 to 160 ng/μL), and then treated with Compound 1 (10 μM). After stirring for 10 minutes in a stirrer at 37° C. for reaction, the fluorescence spectrum was measured (excitation wavelength: 460 nm). Compound 1 was dissolved in DMSO solution at […] and used, and the amount of DMSO was ensured to be the same in each container (less than 1%) under the final solvent conditions used.

[7] = Homocysteine sensing ability in mouse feces; settings: extract of mouse feces, probe 10 μM, 10 minutes at 37° C., excitation 460 nm
Procedure: as §1

In the case of `O=[N+]([O-])c1ccc(Oc2ccncc2)c2nonc12` [Compound 1, 4-nitro-7-(pyridine-4-yloxy)benzo[c] [1,2,5] oxadiazole], the “stability in an aqueous solution” value [1] is reported as “showed stability”, the “fluorescence intensity with homocysteine (A)” value ([2]; 10 μM probe, 10 μM DL-homocysteine) is reported as “strong fluorescence intensity value” and the “fluorescence turn-on under amino thiol, metal ion and biomolecule conditions other than homocysteine” value ([2]; 10 μM probe, 10 μM analyte) is reported as “little fluorescence turn-on phenomenon”. For the same compound, the “fluorescence intensity, probe alone (Only NPO-pyr)” value ([2]; 10 μM) was “almost no fluorescence intensity value”, the “fluorescence intensity in plasma of the experimental group (glioblastoma mice) compared to the control group (normal mice)” value [3] was “stronger fluorescence intensity” and the “sensitivity of the reaction with homocysteine at other pHs (3, 5, 9)” value [4] was “relatively weak”. For the same compound, the “sensitivity of the reaction with homocysteine at pH 7 and 7.4” value [4] was “most sensitive”, the “time to increase in fluorescence after the addition of homocysteine (reaction time)” value ([5]; 10 μM probe, 10 μM homocysteine, excitation 460 nm) was ≤ 5 min and the “fluorescence emission with other amino thiols except homocysteine” value ([5]; cysteine, glutathione, hydrogen sulfide, each 10 μM) was “no fluorescence emission was observed”. For the same compound, the “LOD value for homocysteine” value [6] was 0.176 ppm, the LOD value for homocysteine ([6]; printed conversion of the ppm value) was 1.3 µM and the “ability to sense homocysteine in mouse feces” value [7] was “potential to sense homocysteine”.
